Two molecules from article PMC12615753, “Glutathione as a taste modulator: molecular mechanisms of interaction with umami and sweet taste receptors” (Food Chemistry: Molecular Sciences, 2025) can be followed below.

SMILES strings stand for the structures.

The test has as its target T1, hTAS1R1 (Homo sapiens, UniProt Q7RTX1).
T1 construct: UniProtKB number Q7RTX1–1); expressed in transfected cells; host or cells: HEK293 cells
T1 sequence (Q7RTX1 21-841): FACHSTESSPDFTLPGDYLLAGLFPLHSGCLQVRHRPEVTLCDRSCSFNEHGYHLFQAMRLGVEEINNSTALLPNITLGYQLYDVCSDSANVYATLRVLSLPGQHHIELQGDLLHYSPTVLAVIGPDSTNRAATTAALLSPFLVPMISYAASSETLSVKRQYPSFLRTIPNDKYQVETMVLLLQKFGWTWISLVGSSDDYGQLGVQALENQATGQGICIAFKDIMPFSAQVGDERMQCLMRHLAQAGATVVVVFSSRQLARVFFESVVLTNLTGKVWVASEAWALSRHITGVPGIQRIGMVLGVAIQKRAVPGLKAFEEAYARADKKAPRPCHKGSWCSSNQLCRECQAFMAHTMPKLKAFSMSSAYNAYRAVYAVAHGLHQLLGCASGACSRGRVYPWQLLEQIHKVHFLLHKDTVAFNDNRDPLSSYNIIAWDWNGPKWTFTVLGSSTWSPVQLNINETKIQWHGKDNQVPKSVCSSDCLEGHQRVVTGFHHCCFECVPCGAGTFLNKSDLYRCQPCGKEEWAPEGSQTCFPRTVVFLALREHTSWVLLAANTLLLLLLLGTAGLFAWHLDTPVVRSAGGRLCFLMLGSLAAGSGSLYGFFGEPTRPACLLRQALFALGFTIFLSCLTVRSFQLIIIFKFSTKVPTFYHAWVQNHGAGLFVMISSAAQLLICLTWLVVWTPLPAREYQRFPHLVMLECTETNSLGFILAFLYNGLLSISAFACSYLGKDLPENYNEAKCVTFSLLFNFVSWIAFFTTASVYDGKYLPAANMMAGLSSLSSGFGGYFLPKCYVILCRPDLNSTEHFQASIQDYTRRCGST
Description: Calcium assay, subunit expressed alone. The format is cell-based.
Description: HEK293T/17 cells (ATCC CRL-11268) were seeded into clear bottom black 96-well plates coated with poly-D-lysine at a density of 32500 cells/well in 100 μL of DMEM containing 4.5 g/L glucose and supplemented with penicillin/streptomycin, 2 mM GlutaMAX and 10 % dialyzed fetal bovine serum. The plates were incubated for 24 h at 37 °C and 7.3 % CO2 in a humidified atmosphere. After incubation, using Fugene® 4 K (0.46 μL/well, Promega, Illkirch, France), the cells were transiently transfected with pcDNA3-hTAS1R1-WT (60 ng/well) or TAS1R1 mutants, pcDNA4-rTAS1R3 (60 ng/well), pcDNA3-Gα15i2 (10 ng/well), and pGP-CMV-GCaMP6s (Addgene #40753; 10 ng/well) as a genetically encoded calcium indicator. Twenty-four hours after transfection, the HEK293T/17 cells were rinsed with 100 μL of C1 buffer (130 mM NaCl, 5 mM KCl, 10 mM HEPES, 2 mM CaCl2, and 5 mM sodium pyruvate, pH 7.4). For each molecule tested, a semi-logarithmic concentration range was created consisting of seven increasing concentrations and a negative control (zero dose) made of buffer C1. […] After 20 s of basal fluorescence calcium measurement, the cells were stimulated via automatic injection of a range of compounds in eight wells, and the signal emission was recorded for an additional 70 s, via a FlexStation 3® fluorometric microplate reader (Molecular Devices, San Jose, CA, USA). […] The emitted fluorescence was measured at a wavelength of 510 nm after excitation at 488 nm. […] For each well, the decrease in the raw fluorescence as the relative fluorescence changed was calculated as ΔF/F0. Replicates were averaged for the wells subjected to the same stimuli, the background signal was subtracted, and the fluorescence changes in mock-transfected cells were subtracted. The half-maximal effective concentration (EC50) and maximal signal amplitude (max ∆F/F0) were calculated via non-linear regression of the sigmoidal function four-parameter logistic equation [f(x) = min + (max − min)/(1 + (x/EC50)^nH)] via SigmaPlot 15.0 software (Grafiti LLC, Palo Alto, CA, USA). […]

In the case of `N[C@@H](CCC(=O)N[C@@H](CS)C(=O)NCC(=O)O)C(=O)O` [GSH, γ-L-glutamyl-L-cysteinyl-glycine], the “effect of 10 mM GSH on the response to S807” value was “not increased”. The “response of transfected cells” value (GSH alone, Fig. 5A) was “did not respond”. Take `CCCC(CCC)NC(=O)c1ccc2c(c1)OCO2` [S807, N-(heptan-4-yl)benzo[d][1,3]dioxole-5-carboxamide, reference compound]: the EC50 (S807 alone, Fig. 5D) is 890 ± 130 nM.
